Source: US8779157B2, “MGLUR4 allosteric potentiators, compositions, and methods of treating neurological dysfunction” (Vanderbilt University, priority 2009, dated 2014)

target: mGluR4 (UniProt Q14833); experiment: mGluR4 potentiation assay (fluorescence, Ca2+ or thallium/GIRK readout; EC20 agonist); assay type: cell-based, human / rat; conditions: half maximal effective concentration for mGluR4 potentiation; species of receptor not given
Outline: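 Human mGluR4 in CHO cells (Ca2+ dye) or rat mGluR4 with GIRK in HEK cells (thallium dye), read kinetically. Potentiation EC50 and maximum fitted from compound concentration-response at fixed agonist.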

Row | Compound | EC50
1 | O=C(Nc1ccc(N2C(=O)C3CNCCN3C2=O)c(Cl)c1)c1ccccn1 (stereo not shown) [Example 1.3.45] | 4.2 µM
2 | CS(=O)(=O)N1CCN2C(=O)N(c3ccc(NC(=O)c4ccccn4)cc3Cl)C(=O)C2C1 (stereo not shown) [Example 1.3.47, N-(3-chloro-4-(7-(methylsulfonyl)-1,3-dioxotetrahydroimidazo[1,5-a]pyrazin-2(1H,3H,5H)-yl)phenyl)picolinamide] | 4.71 µM
3 | CC12CCCCN1C(=O)N(c1ccc(NC(=O)c3ccccn3)cc1Cl)C2=O (stereo not shown) [Example 1.3.48, N-(3-chloro-4-(8a-methyl-1,3-dioxohexahydroimidazo[1,5-a]pyridin-2(3H)-yl)phenyl)picolinamide] | 0.434 µM
4 | CC12CCCCN1C(=S)N(c1ccc(NC(=O)c3ccccn3)cc1Cl)C2=O (stereo not shown) [Example 1.3.49, N-(3-chloro-4-(8a-methyl-1-oxo-3-thioxohexahydroimidazo[1,5-a]pyridin-2(3H)-yl)phenyl)picolinamide] | 0.185 µM
5 | O=C(Nc1ccc(N2C(=O)NC3(CCCCC3)C2=O)c(C(F)(F)F)c1)c1ccccn1 [Example 1.3.50, N-(4-(2,4-dioxo-1,3-diazaspiro[4.5]decan-3-yl)-3-(trifluoromethyl)phenyl)picolinamide] | 0.454 µM
6 | O=C(Nc1ccc(N2C(=O)NC3(CCC(c4ccccc4)CC3)C2=O)c(Cl)c1)c1ccccn1 (stereo not shown) [Example 1.3.51, N-(3-chloro-4-(2,4-dioxo-8-phenyl-1,3-diazaspiro[4.5]decan-3-yl)phenyl)picolinamide] | 2.14 µM
7 | CN1C(=O)N(c2ccc(NC(=O)c3ccccn3)cc2Cl)C(=O)C12CCCCC2 [Example 1.3.52, N-(3-chloro-4-(1-methyl-2,4-dioxo-1,3-diazaspiro[4.5]decan-3-yl)phenyl)picolinamide] | 0.178 µM
8 | O=C(Nc1ccc(N2C(=O)NC3(CC4CCC3C4)C2=O)c(Cl)c1)c1ccccn1 (stereo not shown) [Example 1.3.53, N-(3-chloro-4-(2′,5′-dioxospiro[bicyclo[2.2.1]heptane-2,4′-imidazolidin]-1′-yl)phenyl)picolinamide] | 0.217 µM
9 | CN1C(=O)N(c2ccc(NC(=O)c3ccccn3)cc2Cl)C(=O)C12CC1CCC2C1 (stereo not shown) [Example 1.3.54, N-(3-chloro-4-(3′-methyl-2′,5′-dioxospiro[bicyclo[2.2.1]heptane-2,4′-imidazolidin]-1′-yl)phenyl)picolinamide] | 0.325 µM
10 | O=C(Nc1ccc(N2C(=O)NC3(CCCCC3)C2=O)c(C(F)(F)F)c1)c1ccco1 [Example 1.3.55, N-(4-(2,4-dioxo-1,3-diazaspiro[4.5]decan-3-yl)-3-(trifluoromethyl)phenyl)furan-2-carboxamide] | 4.12 µM
11 | O=C(Nc1ccc(N2C(=O)N[C@@H](c3ccccc3)C2=O)c(Cl)c1)c1ccccn1 [Example 1.3.56, (S)-N-(3-chloro-4-(2,5-dioxo-4-phenylimidazolidin-1-yl)phenyl)picolinamide] | 0.38 µM
12 | CC(C)(C)[C@@H]1NC(=O)N(c2ccc(NC(=O)c3ccccn3)cc2Cl)C1=O [Example 1.3.57, (S)-N-(4-(4-(tert-butyl)-2,5-dioxoimidazolidin-1-yl)-3-chlorophenyl)picolinamide] | 0.2 µM
13 | CC(C)N1C(=O)N(c2ccc(NC(=O)c3ccccn3)cc2Cl)C(=O)[C@@H]1C(C)(C)C [Example 1.3.58, (S)-N-(4-(4-(tert-butyl)-3-isopropyl-2,5-dioxoimidazolidin-1-yl)-3-chlorophenyl)picolinamide] | 0.2 µM
14 | CC(C)[C@]1(C)NC(=O)N(c2ccc(NC(=O)c3ccccn3)cc2Cl)C1=O [Example 1.3.59, (S)-N-(3-chloro-4-(4-isopropyl-4-methyl-2,5-dioxoimidazolidin-1-yl)phenyl)picolinamide] | 1.5 µM
15 | CC(C)[C@@]1(C)NC(=O)N(c2ccc(NC(=O)c3ccccn3)cc2Cl)C1=O [Example 1.3.60, (R)-N-(3-chloro-4-(4-isopropyl-4-methyl-2,5-dioxoimidazolidin-1-yl)phenyl)picolinamide] | 3.59 µM
16 | C[C@@]1(Cc2ccc(F)cc2)NC(=O)N(c2ccc(NC(=O)c3ccccn3)cc2Cl)C1=O [Example 1.3.61, (S)-N-(3-chloro-4-(4-(4-fluorobenzyl)-4-methyl-2,5-dioxoimidazolidin-1-yl)phenyl)picolinamide] | 0.335 µM
17 | CN1C(=O)N(c2ccc(NC(=O)c3ccccn3)cc2Cl)C(=O)[C@]1(C)Cc1ccc(F)cc1 [Example 1.3.62, (S)-N-(3-chloro-4-(4-(4-fluorobenzyl)-3,4-dimethyl-2,5-dioxoimidazolidin-1-yl)phenyl)picolinamide] | 0.217 µM
18 | COc1cc(NC(=O)c2ccccn2)ccc1N1C(=O)N[C@@](C)(Cc2ccc(F)cc2)C1=O [Example 1.3.63, (S)-N-(4-(4-(4-fluorobenzyl)-4-methyl-2,5-dioxoimidazolidin-1-yl)-3-methoxyphenyl)picolinamide] | 1.04 µM
19 | CN1C(=O)N(c2ccc(NC(=O)c3ccccn3)cc2Cl)C(=O)[C@]1(C)Cc1ccccc1 [Example 1.3.64, (S)-N-(4-(4-benzyl-3,4-dimethyl-2,5-dioxoimidazolidin-1-yl)-3-chlorophenyl)picolinamide] | 0.197 µM

Row | Compound | EC50
20 | CCN1C(=O)N(c2ccc(NC(=O)c3ccccn3)cc2Cl)C(=O)[C@]1(C)Cc1ccccc1 [Example 1.3.65, (S)-N-(4-(4-benzyl-3-ethyl-4-methyl-2,5-dioxoimidazolidin-1-yl)-3-chlorophenyl)picolinamide] | 0.236 µM
21 | C[C@@]1(Cc2ccccc2)NC(=O)N(c2ccc(NC(=O)c3ncc(F)cc3F)cc2Cl)C1=O [Example 1.3.66, (S)-N-(4-(4-benzyl-4-methyl-2,5-dioxoimidazolidin-1-yl)-3-chlorophenyl)-3,5-difluoropicolinamide] | 2.96 µM
22 | C[C@@]1(Cc2ccccc2)NC(=O)N(c2ccc(NC(=O)c3nccs3)cc2Cl)C1=O [Example 1.3.67, (S)-N-(4-(4-benzyl-4-methyl-2,5-dioxoimidazolidin-1-yl)-3-chlorophenyl)thiazole-2-carboxamide] | 6.11 µM
23 | COc1cccc(C(=O)Nc2ccc(N3C(=O)N[C@@](C)(Cc4ccccc4)C3=O)c(Cl)c2)n1 [Example 1.3.68, (S)-N-(4-(4-benzyl-4-methyl-2,5-dioxoimidazolidin-1-yl)-3-chlorophenyl)-6-methoxypicolinamide] | 5.88 µM
24 | C[C@@]1(Cc2ccccc2)NC(=O)N(c2ccc(NC(=O)c3cccc(F)n3)cc2Cl)C1=O [Example 1.3.69, (S)-N-(4-(4-benzyl-4-methyl-2,5-dioxoimidazolidin-1-yl)-3-chlorophenyl)-6-fluoropicolinamide] | 1.63 µM
25 | O=C(Nc1ccc(N2C(=O)NC(C3CCCCC3)C2=O)c(Cl)c1)c1ccccn1 (stereo not shown) [Example 1.3.70, N-(3-chloro-4-(4-cyclohexyl-2,5-dioxoimidazolidin-1-yl)phenyl)picolinamide] | 0.743 µM
26 | O=C(Nc1ccc(N2C(=O)C3CN(C4CCCCC4)CCN3C2=O)c(Cl)c1)c1ccccn1 (stereo not shown) [Example 1.3.71, N-(3-chloro-4-(7-cyclohexyl-1,3-dioxohexahydroimidazo[1,5-a]pyrazin-2(3H)-yl)phenyl)picolinamide] | 2.23 µM
27 | CC(=O)N1CCN2C(=O)N(c3ccc(NC(=O)c4ccccn4)cc3Cl)C(=O)C2C1 (stereo not shown) [Example 1.3.72, N-(4-(7-acetyl-1,3-dioxohexahydroimidazo[1,5-a]pyrazin-2(3H)-yl)-3-chlorophenyl)picolinamide] | 4.51 µM
28 | CC(C)(C)C(=O)N1CCN2C(=O)N(c3ccc(NC(=O)c4ccccn4)cc3Cl)C(=O)C2C1 (stereo not shown) [Example 1.3.73, N-(3-chloro-4-(1,3-dioxo-7-pivaloylhexahydroimidazo[1,5-a]pyrazin-2(3H)-yl)phenyl)picolinamide] | 1.07 µM
29 | O=C(Nc1ccc(N2C(=O)C3CN(C(=O)c4ccco4)CCN3C2=O)c(Cl)c1)c1ccccn1 (stereo not shown) [Example 1.3.74, N-(3-chloro-4-(7-(furan-2-carbonyl)-1,3-dioxohexahydroimidazo[1,5-a]pyrazin-2(3H)-yl)phenyl)picolinamide] | 0.967 µM
30 | O=C(Nc1ccc(N2C(=O)C3CCCCN3C2=S)c(Cl)c1)c1cccc(Cl)n1 (stereo not shown) [Example 1.3.75, 6-chloro-N-(3-chloro-4-(1-oxo-3-thioxohexahydroimidazo[1,5-a]pyridin-2(3H)-yl)phenyl)picolinamide] | 3.26 µM
31 | O=C(Nc1ccc(N2C(=O)C3CCCCN3C2=S)c(Cl)c1)c1cnccn1 (stereo not shown) [Example 1.3.76, N-(3-chloro-4-(1-oxo-3-thioxohexahydroimidazo[1,5-a]pyridin-2(3H)-yl)phenyl)pyrazine-2-carboxamide] | 5.04 µM
32 | O=C(Nc1ccc(N2C(=O)C3CCCCN3C2=S)c(Cl)c1)c1cccs1 (stereo not shown) [Example 1.3.77, N-(3-chloro-4-(1-oxo-3-thioxohexahydroimidazo[1,5-a]pyridin-2(3H)-yl)phenyl)thiophene-2-carboxamide] | 2.78 µM
33 | O=C(Nc1ccc(N2C(=O)C3CCCCN3C2=S)c(Cl)c1)c1ccsc1 (stereo not shown) [Example 1.3.78, N-(3-chloro-4-(1-oxo-3-thioxohexahydroimidazo[1,5-a]pyridin-2(3H)-yl)phenyl)thiophene-3-carboxamide] | 1.79 µM
34 | O=C(Nc1ccc(N2C(=O)C3CCCCN3C2=S)c(Cl)c1)c1nccs1 (stereo not shown) [Example 1.3.79, N-(3-chloro-4-(1-oxo-3-thioxohexahydroimidazo[1,5-a]pyridin-2(3H)-yl)phenyl)thiazole-2-carboxamide] | 1.34 µM
35 | O=C(Nc1ccc(N2C(=O)C3CCCCN3C2=S)c(Cl)c1)c1cscn1 (stereo not shown) [Example 1.3.80, N-(3-chloro-4-(1-oxo-3-thioxohexahydroimidazo[1,5-a]pyridin-2(3H)-yl)phenyl)thiazole-4-carboxamide] | 1.97 µM
36 | O=C(Nc1ccc(N2C(=O)C3CCCCN3C2=S)c(Cl)c1)c1ncc(F)cc1F (stereo not shown) [Example 1.3.81, N-(3-chloro-4-(1-oxo-3-thioxohexahydroimidazo[1,5-a]pyridin-2(3H)-yl)phenyl)-3,5-difluoropicolinamide] | 0.876 µM
37 | O=C(Nc1ccc(N2C(=O)C3CCCCN3C2=S)c(Cl)c1)c1ccc(Cl)o1 (stereo not shown) [Example 1.3.82, 5-chloro-N-(3-chloro-4-(1-oxo-3-thioxohexahydroimidazo[1,5-a]pyridin-2(3H)-yl)phenyl)furan-2-carboxamide] | 2.85 µM
